# Data as given in US7202069B2, “(R)-2-octanol dehydrogenases, methods for producing the enzymes, DNA encoding the enzymes, and methods for producing alcohols using the enzymes” (Daicel Chemical Industries, Ltd., priority 2000, dated 2007).
# Like-named read-outs stand apart in the source and are kept apart here.
# Experiments:
# [1] = test system: (R)-2-octanol dehydrogenase; test: Residual (R)-2-octanol dehydrogenase activity after treatment with reagents; format: biochemical, Pichia finlandica
# Protocol: The (R)-2-octanol dehydrogenase was treated with various reagents at 30° C. for 30 minutes and the (R)-2-octanol dehydrogenase activity was measured.
# [2] = test system: (R)-2-octanol dehydrogenase; test: Oxidation activity of (R)-2-octanol dehydrogenase on various alcohols, NAD+ as coenzyme; format: biochemical, Pichia finlandica; conditions: oxidation activity of (R)-2-octanol taken as 100
# Protocol: (§1) On the other hand, oxidation activity on (R)-2-octanol can be measured as follows. The activity can be validated by incubating at 30° C. the reaction mixture containing Tris-HCl buffer (pH 8.5, 50 mM), 2.5 mM NAD^+, 5 mM (R)-2-octanol, and the enzyme and by measuring increase of absorbance at 340 nm accompanying generation of NADH. 1 U was defined as the amount of the enzyme catalyzing generation of 1 μmol of NADH for 1 minute.
# The (R)-2-octanol dehydrogenase was reacted with various alcohols and its oxidation activity was measured.
# [3] = test system: (R)-2-octanol dehydrogenase; test: Reduction activity of the enzyme of Example 3 on various ketones, NADH as coenzyme; format: biochemical, Pichia finlandica
# Protocol: (§2) In the present invention, reduction activity on 4-chloroacetoacetic acid ester can be measured as follows. The activity can be validated by incubating at 30° C. the reaction mixture containing potassium phosphate buffer (pH 6.5, 100 mM), 0.2 mM NADH, 20 mM ethyl 4-chloroacetoacetate, and the enzyme and by measuring decrease of absorbance at 340 nm accompanying decrease of NADH. 1 U was defined as the amount of the enzyme catalyzing decrease of 1 μmol of NADH for 1 minute. Quantification of proteins can be done by dye binding method using the protein assay kit (BIORAD).
# The enzyme of Example 3 was reacted with various ketones and its reduction activity was measured.
# [4] = test system: (R)-2-octanol dehydrogenase; test: Oxidation activity of (R)-2-octanol dehydrogenase on various alcohols, NAD+ as coenzyme; format: biochemical, Candida utilis; conditions: oxidation activity of (R)-2-octanol taken as 100
# Protocol: as §1
# The (R)-2-octanol dehydrogenase was reacted with various alcohols and its oxidation activity was measured. […] As a result, the relative activity was 6.7% for (S)-2-octanol, 8.3% for 2-propanol, and 86% for (R)-1-phenylethanol.
# [5] = test system: (R)-2-octanol dehydrogenase; test: Reduction activity of the enzyme of Example 35 on various ketones, NADH as coenzyme; format: biochemical, Candida utilis
# Protocol: as §2
# The enzyme of Example 35 was also reacted with various ketones and its reduction activity was measured. […] As a result, the relative activity was 26.6% for 2-octanone and 25.3% for acetophenone.
# [6] = reagent 1 mM, 30° C. for 30 minutes, enzyme treated without reagents = 100
# [7] = reduction activity of 4-chloroacetoacetic acid ethyl ester taken as 100, NADH as coenzyme
# [8] = 4-chloroacetoacetic acid ethyl ester taken as 100, NADH
compound,measurement,setting,value
O[C@H](CS)[C@H](O)CS (racemic) [Dithiothreitol],Residual activity,[1]; [6],123%
CCCCCCCCO [1-Octanol],"relative activity, oxidation reaction",[2]; NAD+ as coenzyme,1.72
CC(O)COc1ccccc1 (stereo not drawn) [1-Phenoxy-2-propanol],"relative activity, oxidation reaction",[2]; NAD+ as coenzyme,15.5
CC(=O)COc1ccccc1 [1-Phenoxy-2-propanone],"relative activity, reduction reaction",[3]; [7],54.2
CCC(C)=O [2-Butanone],"relative activity, reduction reaction",[3]; [7],7.99
CCCCC(C)O (stereo not drawn) [2-Hexanol],"relative activity, oxidation reaction",[2]; NAD+ as coenzyme,54.1
CCCCCCC(C)O (stereo not drawn) [2-Octanol],"relative activity, oxidation reaction",[4]; NAD+ as coenzyme,8.3
same,"relative activity, oxidation reaction",[2]; NAD+ as coenzyme,77.8
CCCCCCC(C)=O [2-Octanone],"relative activity, reduction reaction",[5]; [8],26.6%
same,"relative activity, reduction reaction",[5]; [7],26.6
same,"relative activity, reduction reaction",[3]; [8],31.2%
same,"relative activity, reduction reaction",[3]; [7],31.2
CC(C)O [2-Propanol],"relative activity, oxidation reaction",[4]; NAD+,8.3%
same,"relative activity, oxidation reaction",[2]; NAD+,6.8%
same,"relative activity, oxidation reaction",[2]; NAD+ as coenzyme,6.79
CC(=O)CCO [4-Hydroxy-2-butanone],"relative activity, reduction reaction",[3]; [7],0.691
"C[C@@H](O)CCO [(R)-1,3-butanediol]","relative activity, oxidation reaction",[2]; NAD+ as coenzyme,1.29
"OCC[C@@H](O)c1ccccc1 [(R)-1-phenyl-1,3-propanediol]","relative activity, oxidation reaction",[2]; NAD+ as coenzyme,0.344
C[C@@H](O)c1ccccc1 [(R)-1-phenylethanol],"relative activity, oxidation reaction",[4]; NAD+,86%
same,"relative activity, oxidation reaction",[4]; NAD+ as coenzyme,86.7
same,"relative activity, oxidation reaction",[2]; NAD+,255%
same,"relative activity, oxidation reaction",[2]; NAD+ as coenzyme,255
CCCCCC[C@@H](C)O [(R)-2-octanol],"relative activity, oxidation reaction",[4]; NAD+ as coenzyme,100
same,"relative activity, oxidation reaction",[2]; NAD+ as coenzyme,100
"C[C@H](O)CCO [(S)-1,3-butanediol]","relative activity, oxidation reaction",[2]; NAD+ as coenzyme,0.516
"OCC[C@H](O)c1ccccc1 [(S)-1-phenyl-1,3-propanediol]","relative activity, oxidation reaction",[2]; NAD+ as coenzyme,0.258
C[C@H](O)c1ccccc1 [(S)-1-phenylethanol],"relative activity, oxidation reaction",[4]; NAD+ as coenzyme,6.7
same,"relative activity, oxidation reaction",[2]; NAD+ as coenzyme,1.81
CCCCCC[C@H](C)O [(S)-2-octanol],"relative activity, oxidation reaction",[4]; NAD+,6.7%
same,"relative activity, oxidation reaction",[4]; NAD+ as coenzyme,6.7
same,"relative activity, oxidation reaction",[2]; NAD+,4.7%
same,"relative activity, oxidation reaction",[2]; NAD+ as coenzyme,4.73
CC(C)=O [Acetone],"relative activity, reduction reaction",[3]; [7],1.82
CC(=O)c1ccccc1 [Acetophenone],"relative activity, reduction reaction",[5]; [8],25.3%
same,"relative activity, reduction reaction",[5]; [7],25.3
same,"relative activity, reduction reaction",[3]; [8],45%
same,"relative activity, reduction reaction",[3]; [7],45.3
O.O.[Ba+2].[Cl-].[Cl-] [BaCl2Ñ2H2O],Residual activity,[1]; [6],102%
"[Ca+2].[Cl-].[Cl-] [CaCl2Ñ2H2O, calcium chloride]",Residual activity,[1],174%
same,"effect of reagent on the enzyme (inhibition / stabilization), in words",[1],stabilized
O.O.O.O.O.O.[Cl-].[Cl-].[Co+2] [CoCl2Ñ6H2O],Residual activity,[1]; [6],99%
O=S(=O)([O-])[O-].[Cu+2] [CuSO4],Residual activity,[1]; [6],100%
OC1CCCCC1 [Cyclohexanol],"relative activity, oxidation reaction",[2]; NAD+ as coenzyme,0.172
"O=C([O-])CN(CCN(CC(=O)[O-])CC(=O)O)CC(=O)O.[Na+].[Na+] [EDTAÑ2Na, ethylenediaminetetraacetic acid 2Na]",Residual activity,[1]; [6],81%
same,"effect of reagent on the enzyme (inhibition / stabilization), in words",[1]; treated at 30° C. for 30 minutes,slightly inhibited
CCO [Ethanol],"relative activity, oxidation reaction",[2]; NAD+ as coenzyme,0.688
CCOC(=O)CC(=O)CCl [Ethyl 4-chloroacetoacetate],"relative activity, reduction reaction",[5]; [7],100
same,"relative activity, reduction reaction",[3]; [7],100
